Laboratory results reported in US7736899B1, “Cells and method for producing proteins comprising an unconventional amino acid” (priority 1998, dated 2010).

How the values were obtained:
Format in all cases: cell-based, E. coli
modified strain β8146 = assay: Phenotypic suppression by metabolic precursors of cysteine (growth factor replacement)
Description: (§1) The nutrient requirement for cysteine of the modified strains β8144 and β8146 is exploited in order to characterize metabolic precursors which may substitute for cysteine in the culture medium without giving rise to degradation by oxidation. […] However, the addition of none of these substances allows growth of the strain β1308 carrying a chromosomal deletion of the thyA gene of thymidylate synthase, thus excluding their contamination with traces of thymine or of thymidine.

modified strain β8144 = assay: as above
Description: as §1

[1] = test system: strain β5455 (valS T222P); assay: Zone of growth inhibition on Petri dishes, sensitivity to noncanonical amino acids; conditions: 24 h at 30° C.
Description: (§2) The strains β5455, β8144 and β8146 are tested for their sensitivity to artificial amino acids which show steric resemblance to valine. The test is carried out on dishes containing glucose of MS mineral medium supplemented with thymidine. The cells are cultured in aerobic medium (glucose MS mineral medium, 0.3 mM thymidine) for 24 h at 30° C. and diluted to 1/250 in MS mineral medium. 0.5 ml of this cell suspension is plated out onto Petri dishes containing 25 ml of glucose MS mineral medium. A well is then hollowed out at the center of the dish and filled with 0.1 ml of an amino acid solution:
(§3) The dishes are then incubated for 24 h at 30° C. and the possible appearance on the dishes of a zone of inhibition around the well is recorded. The diameters of the limited zones of growth inhibition on Petri dishes are measured: […]

[2] = test system: strain β8144 (mutated valS); assay: as above; conditions: 24 h at 30° C.
Description: as §2, §3

[3] = test system: strain β8146 (mutated valS); assay: as above; conditions: 24 h at 30° C.
Description: as §2, §3

[4] = test system: strain β5366 (wild-type valS allele); assay: as above; conditions: 24 h at 30° C.; for effect on growth (zone of inhibition): central well with 0.1 ml of 100 mM amino acid solution
[5] = test system: strain β5366 (thyA:Val146); assay: Growth on cysteine diffusion gradient in Petri dishes
Description: (§4) The plasmid pTS1 thus obtained propagates the thyA:Val146 allele, in which position 146 occupied in the wild-type thyA gene by the UGC codon of cysteine is occupied by the GUA codon of valine. The plasmid pTS1 is introduced by transformation, carried out according to the method of Sambrook et al. (1989), into the E. coli K12 ΔthyA strain, β1308 (Lemeignan et al., 1993), in which the chromosomal thymidylate synthase gene, thyA, is deleted. The transformed strain carrying the thyA:Val146 plasmid allele, β5366, is shown to be incapable of growing without thymine or thymidine being added to the culture medium, as is the strain β1308 from which it derives. […] Thus, it is as though the cysteine can infiltrate into the valyl-tRNA synthetase active site to form erroneous Cys-tRNAs^Val capable of correcting the substitution of the cysteine in the thymidylate synthase active site, with valine. The excess of valine would prevent the formation of these erroneous Cys-tRNAs^Val.

[6] = test system: strain β5274 (thyA:Ile146); assay: Phenotypic suppression by cysteine of thyA:Ile146 strain; conditions: 0.1 mM
Description: The plasmid pTS2 thus obtained propagates the thyA:Ile146 allele in which position 146 occupied in the wild-type thyA gene by the UGC codon of cysteine is occupied by the AUA codon of isoleucine. The strain which propagates the thyA:Ile146 plasmid allele, β5274, is shown to require the nutritional supply of thymine, of thymidine or of cysteine in excess, as was the strain β5366. The phenotypic suppression of the strain β5274 by the cysteine is abolished with 0.1 mM of isoleucine, as was that of the strain β5366 with valine. Thus, it is as though the isoleucyl-tRNA synthetase is capable of forming erroneous Cys-tRNAs^Ile in the presence of an excess of cysteine, and that this erroneous formation is prevented by the presence of an excess of isoleucine.

[7] = test system: twelve clones derived from strain β5366; assay: Growth factor test of clones from serial culture on plates with nutrient factors; conditions: glucose MS mineral medium plates
Description: The strain β5366 carrying the thyA:Val146 missense allele on the plasmid pTS1 is cultured in glucose MS mineral medium (2 g/l, Richaud et al., 1993) supplemented with 0.3 mM of thymidine, for 24 h at 30° C. in aerobiosis. The cells are then washed twice with deoxygenated MS mineral medium. A deoxygenated nutrient medium containing 10 ml of glucose MS mineral medium supplemented with 1.5 mM of cysteine is inoculated at 1/100 using the washed cells. The cells are then cultured in anaerobiosis for 24 h at 30° C., and a fresh tube containing 10 ml of deoxygenated cysteine glucose MS mineral medium is inoculated with a 1/100 dilution of the previous culture in the stationary phase. This procedure is repeated 26 times. At the end of this serial propagation, 12 clones from the liquid culture are isolated on plates containing thymidine (0.3 mM) glucose (2 g/l) MS mineral medium, in aerobiosis, and stored in suspension in the same liquid medium at −80° C. The twelve clones are tested on plates containing glucose MS mineral medium supplemented with nutrient factors. All these clones are shown to require thymine or thymidine as a growth factor, unless cysteine is present in the culture medium, at a concentration of at least 1.5 mM.

strain β1308 (ΔthyA) = assay: Growth on cysteine diffusion gradient in Petri dishes; conditions: 30° C., glucose MS mineral medium, central well 0.1 ml of 400 mM L-cysteine
Description: as §4

[8] = central well with 0.1 ml of 50 mM amino acid solution
[9] = central well with 0.1 ml of 100 mM amino acid solution

O=C(O)[C@@H]1CSCN1 [L-thiazolidine-4-carboxylic acid]
replacement of cysteine as growth factor instead of thymidine or thymine (modified strain β8146; 2 mM in culture medium): capable of replacing cysteine as a growth factor
replacement of cysteine as growth factor instead of thymidine or thymine (modified strain β8144; 2 mM in culture medium): capable of replacing cysteine as a growth factor

CC(S)[C@H](N)C(=O)O (stereo partly drawn) [L-3-thiol-2-aminobutyrate]
diameter of zone of growth inhibition [1, 8]: 4.6 cm
diameter of zone of growth inhibition [2, 8]: 4.0 cm
diameter of zone of growth inhibition [3, 8]: 4.0 cm
diameter of zone of growth inhibition [4, 8]: 2.0 cm

L-2-aminobutyrate
diameter of zone of growth inhibition [1, 9]: 5.2 cm
diameter of zone of growth inhibition [2, 9]: 5.7 cm
diameter of zone of growth inhibition [3, 9]: 6.7 cm
effect on growth (zone of inhibition) [4]: no effect

CCC[C@H](N)C(=O)O [L-2-aminovalerate]
diameter of zone of growth inhibition [1, 9]: 2.1 cm
diameter of zone of growth inhibition [2, 9]: 1.5 cm
diameter of zone of growth inhibition [3, 9]: 6.7 cm
effect on growth (zone of inhibition) [4]: no effect

NC[C@H](N)C(=O)O [L-2,3-diaminopropionate]
diameter of zone of growth inhibition [1, 9]: 2.3 cm
diameter of zone of growth inhibition [2, 9]: 2.7 cm
diameter of zone of growth inhibition [3, 9]: 1.9 cm
effect on growth (zone of inhibition) [4]: no effect

CC(C)[C@H](N)C(=O)O [valine]
effect on growth on a cysteine gradient ([5]; 0.1 mM added to the medium of the Petri dishes): abolishes the growth

CSC[C@H](N)C(=O)O [S-methyl-L-cysteine]
replacement of cysteine as growth factor instead of thymidine or thymine (modified strain β8146; 3 mM in culture medium): capable of replacing cysteine as a growth factor
replacement of cysteine as growth factor instead of thymidine or thymine (modified strain β8144; 3 mM in culture medium): capable of replacing cysteine as a growth factor

NC(=O)SC[C@H](N)C(=O)O [S-carbamyl-L-cysteine]
replacement of cysteine as growth factor instead of thymidine or thymine (modified strain β8146; 3 mM in culture medium): capable of replacing cysteine as a growth factor
replacement of cysteine as growth factor instead of thymidine or thymine (modified strain β8144; 3 mM in culture medium): capable of replacing cysteine as a growth factor

CC[C@H](C)[C@H](N)C(=O)O [isoleucine]
effect on phenotypic suppression by cysteine [6]: abolished

N[C@@H](CS)C(=O)O [L-cysteine]
cysteine concentration that replaces thymine or thymidine as growth factor [7]: at least 1.5 mM
growth on cysteine diffusion gradient (strain β1308 (ΔthyA)): no detectable growth
growth on cysteine diffusion gradient ([5]; 30° C., glucose MS mineral medium, central well 0.1 ml of 400 mM L-cysteine): marginal growth
